A word on the GI50: it is the concentration that inhibits growth by half.

The record followed here is patent US20250171420A1 (Monte Rosa Therapeutics, Inc., priority 2022, published 2025).

Structures are written as SMILES. Read-outs that look alike come from different tables or passages of the source. Bounds are passed on as bounds.

For one assay, the system named is SKCO1 cell line. Briefly: Growth inhibition, CyQUANT Direct Cell Proliferation Assay, SKCO1. Conditions: Homo sapiens. Format: cell-based. On the procedure: (§1) SKCO1, LS180, and LS174T cell lines were purchased from ATCC. CW2 cell line was purchased from Riken. GP2D cell line was purchased from Sigma/ECACC. All cell lines were cultured in manufacturer's recommended media at 37° C., 5% CO2. Briefly, cells were suspended in 200 μL of media and seeded at 300 to 1,800 cells per well in tissue culture treated 96-well plates with black walls and clear bottom. Plates were incubated overnight and initial (To) read was performed the following day using CyQUANT Direct Cell Proliferation Assay Kit (Thermo Fisher Scientific) according to manufacturer's protocol. All compounds were solubilized in DMSO and prepared at 3-fold serial dilution, using 9 points starting at 30 μM as highest concentration, administered to cells and incubated for 120 to 168 hours, at which point CyQUANT assay measurement was performed using Acumen Cellista instrument (Ex/Em 480/520 nm). Media-only wells were used as blank, and 0.3% DMSO was used as DMSO-treated cell control. Growth inhibition (percent response) was calculated using the following formula in Excel: “=if ([Compound treated Day N]>[Untreated Day 0, AVG], ([Compound treated Day N]−[Untreated Day 0, AVG])/([Untreated Day N]−[Untreated Day 0, AVG])*100, ([Compound Treated Day N]−[Untreated Day 0, AVG])/([Untreated Day 0, AVG])*100)”. GI50 is the response corresponding to the 50% of untreated control.
(§2) GI50 data are reported in Tables 4a, 4b, 4c, 4d, and 4e for compounds in Table 1. In Tables 4a, 4b, 4c, 4d, and 4e below, According to the code, A represents a GI50 value of ≤0.1 μM, B represents a GI50 value>0.1 μM and ≤1 μM, C represents an GI50 value>1 μM.

For a further assay, the system named is GP2D cell line. Briefly: Growth inhibition, CyQUANT Direct Cell Proliferation Assay, GP2D. In kind it is cell-based. On the procedure: as §1, §2
In a further assay the test system is CW2 cell line. In words: Growth inhibition, CyQUANT Direct Cell Proliferation Assay, CW2. To be noted: Homo sapiens. In kind it is cell-based. On the procedure: as §1, §2
The test system of another assay is LS180 cell line. Briefly: Growth inhibition, CyQUANT Direct Cell Proliferation Assay, LS180. In kind it is cell-based. To be noted: Homo sapiens. On the procedure:
as §1, §2

Another assay concerns the target CRBN/DDB1 (Homo sapiens, UniProt Q96SW2). In words: HTRF binding assay (displacement of Cy5-thalidomide probe from CRBN/DDB1). To be noted: CRBN/DDB1 2.5 nM, Cy5-Thalidomide 100 nM, 30 min; geometric mean; read-out: HTRF_Thali_Disp_DR_geo_IC50. A digest of the protocol: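 HTRF displacement of Cy5-thalidomide (100 nM) from His-tagged CRBN/DDB1 (2.5 nM) with anti-His Tb cryptate in 20 mM HEPES, 20 mM NaCl, 0.2 mM TCEP, 0.2 mM EDTA, 0.005% Tween20. 10-point 1:3 series, 30 min ambient. 665/620 nm ratio fitted 4-parameter for IC50; Ki by Cheng-Prusoff from geometric-mean IC50.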

The next assay deals with LS174T cell line. In words: Growth inhibition, CyQUANT Direct Cell Proliferation Assay, LS174T. In kind it is cell-based. To be noted: Homo sapiens. On the procedure: as §1, §2
Another assay addresses T1, CK1α (Homo sapiens, UniProt P48729).
T1 construct: HEK293 clonal lines with CRISPR KI HiBiT tag on CSNK1A1
Briefly: CK1α NanoBit Assay (HiBiT-tagged CSNK1A1, HEK293 clonal lines). Format: cell-based. Conditions: HEK293 HiBiT-CSNK1A1/LgBiT cells, 24 h incubation. A digest of the protocol:
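HEK293 clones carrying a CRISPR knock-in HiBiT tag on CSNK1A1 and stably expressing LgBiT are treated with compound for 24 hours at 37° C, 5% CO2, then read by luminescence. Response is normalized as 100*(S−N)/(P−N) against plate negative and positive controls, and DC50 values are derived.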
A general note: HiBiT is a short tag that completes a luciferase, so light tracks the accessible tagged protein.

The mark [1] stands for this setting: SK-CO-1, SKCO1, 120 to 168 hours, read-out: SKCO1 GI50.
Setting [2] is: GP2D, 120 to 168 hours, read-out: GP2D GI50.
Setting [3] is: CW-2, CW2, 120 to 168 hours, read-out: CW2 GI50.
Where [4] appears, read: LS180, 120 to 168 hours, read-out: LS180 GI50.
Where [5] appears, read: 120 to 168 hours, read-out: LS174T GI50.
Where [6] appears, read: SK-CO-1, read-out: SKCO1 GI50 (μM).
The mark [7] stands for this setting: LS180, read-out: LS180 GI50 (μM).

T1 sequence (P48729 whole entry): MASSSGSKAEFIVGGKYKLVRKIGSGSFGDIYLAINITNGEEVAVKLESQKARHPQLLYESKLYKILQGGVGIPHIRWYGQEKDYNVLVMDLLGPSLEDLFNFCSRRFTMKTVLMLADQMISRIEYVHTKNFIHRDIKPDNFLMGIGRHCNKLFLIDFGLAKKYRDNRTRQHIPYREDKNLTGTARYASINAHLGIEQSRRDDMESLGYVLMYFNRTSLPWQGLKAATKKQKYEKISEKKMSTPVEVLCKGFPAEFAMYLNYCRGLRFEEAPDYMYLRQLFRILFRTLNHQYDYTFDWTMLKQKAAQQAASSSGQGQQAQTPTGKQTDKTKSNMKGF
T1 sequence (Q96SW2 whole entry, further chain): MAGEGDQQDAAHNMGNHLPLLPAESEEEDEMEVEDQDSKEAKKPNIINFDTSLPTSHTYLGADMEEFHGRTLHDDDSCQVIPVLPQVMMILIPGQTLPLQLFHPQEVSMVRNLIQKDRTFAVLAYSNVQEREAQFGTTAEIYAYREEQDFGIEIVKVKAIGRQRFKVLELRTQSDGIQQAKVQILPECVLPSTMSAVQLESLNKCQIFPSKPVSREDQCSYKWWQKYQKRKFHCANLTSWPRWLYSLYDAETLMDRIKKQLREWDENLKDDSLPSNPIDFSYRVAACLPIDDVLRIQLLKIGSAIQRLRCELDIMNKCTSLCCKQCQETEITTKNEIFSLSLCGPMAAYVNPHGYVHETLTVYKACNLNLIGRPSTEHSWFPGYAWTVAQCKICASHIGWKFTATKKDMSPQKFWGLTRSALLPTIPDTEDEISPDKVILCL
T1 sequence (Q16531 2-1140 partner limits assumed): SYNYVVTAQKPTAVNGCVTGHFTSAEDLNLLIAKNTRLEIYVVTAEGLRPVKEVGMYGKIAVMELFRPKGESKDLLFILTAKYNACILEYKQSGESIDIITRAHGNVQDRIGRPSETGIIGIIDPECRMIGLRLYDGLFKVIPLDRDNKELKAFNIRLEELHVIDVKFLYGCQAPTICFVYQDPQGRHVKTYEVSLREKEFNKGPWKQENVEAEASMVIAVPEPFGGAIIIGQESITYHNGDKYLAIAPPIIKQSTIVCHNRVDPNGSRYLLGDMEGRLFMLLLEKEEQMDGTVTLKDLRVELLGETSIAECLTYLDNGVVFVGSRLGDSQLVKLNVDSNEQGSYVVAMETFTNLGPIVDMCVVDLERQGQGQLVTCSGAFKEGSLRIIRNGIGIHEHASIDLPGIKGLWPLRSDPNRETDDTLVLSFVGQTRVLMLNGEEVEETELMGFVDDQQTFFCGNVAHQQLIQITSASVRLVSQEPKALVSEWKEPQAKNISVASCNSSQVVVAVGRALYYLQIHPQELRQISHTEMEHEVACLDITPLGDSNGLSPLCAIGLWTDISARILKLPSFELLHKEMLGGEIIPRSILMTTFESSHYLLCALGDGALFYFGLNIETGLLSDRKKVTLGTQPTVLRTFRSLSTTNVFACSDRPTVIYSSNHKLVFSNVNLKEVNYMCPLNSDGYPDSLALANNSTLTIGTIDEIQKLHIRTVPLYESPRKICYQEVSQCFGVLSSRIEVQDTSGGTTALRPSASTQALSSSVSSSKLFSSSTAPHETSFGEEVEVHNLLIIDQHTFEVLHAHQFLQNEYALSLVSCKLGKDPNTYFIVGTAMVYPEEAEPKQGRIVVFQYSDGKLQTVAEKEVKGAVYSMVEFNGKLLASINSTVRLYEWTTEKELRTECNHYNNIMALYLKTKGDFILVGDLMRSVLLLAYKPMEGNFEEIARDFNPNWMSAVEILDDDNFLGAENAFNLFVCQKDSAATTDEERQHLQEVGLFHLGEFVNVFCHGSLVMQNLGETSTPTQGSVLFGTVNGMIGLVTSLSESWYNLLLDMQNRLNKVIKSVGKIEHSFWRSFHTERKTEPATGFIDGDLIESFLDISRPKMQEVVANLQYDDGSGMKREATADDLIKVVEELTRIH
CRBN/DDB1, sequence (Q96SW2 whole entry, species assumed): as the sequence (Q96SW2 whole entry, further chain) above
CRBN/DDB1, sequence (Q16531 whole entry partner, species assumed): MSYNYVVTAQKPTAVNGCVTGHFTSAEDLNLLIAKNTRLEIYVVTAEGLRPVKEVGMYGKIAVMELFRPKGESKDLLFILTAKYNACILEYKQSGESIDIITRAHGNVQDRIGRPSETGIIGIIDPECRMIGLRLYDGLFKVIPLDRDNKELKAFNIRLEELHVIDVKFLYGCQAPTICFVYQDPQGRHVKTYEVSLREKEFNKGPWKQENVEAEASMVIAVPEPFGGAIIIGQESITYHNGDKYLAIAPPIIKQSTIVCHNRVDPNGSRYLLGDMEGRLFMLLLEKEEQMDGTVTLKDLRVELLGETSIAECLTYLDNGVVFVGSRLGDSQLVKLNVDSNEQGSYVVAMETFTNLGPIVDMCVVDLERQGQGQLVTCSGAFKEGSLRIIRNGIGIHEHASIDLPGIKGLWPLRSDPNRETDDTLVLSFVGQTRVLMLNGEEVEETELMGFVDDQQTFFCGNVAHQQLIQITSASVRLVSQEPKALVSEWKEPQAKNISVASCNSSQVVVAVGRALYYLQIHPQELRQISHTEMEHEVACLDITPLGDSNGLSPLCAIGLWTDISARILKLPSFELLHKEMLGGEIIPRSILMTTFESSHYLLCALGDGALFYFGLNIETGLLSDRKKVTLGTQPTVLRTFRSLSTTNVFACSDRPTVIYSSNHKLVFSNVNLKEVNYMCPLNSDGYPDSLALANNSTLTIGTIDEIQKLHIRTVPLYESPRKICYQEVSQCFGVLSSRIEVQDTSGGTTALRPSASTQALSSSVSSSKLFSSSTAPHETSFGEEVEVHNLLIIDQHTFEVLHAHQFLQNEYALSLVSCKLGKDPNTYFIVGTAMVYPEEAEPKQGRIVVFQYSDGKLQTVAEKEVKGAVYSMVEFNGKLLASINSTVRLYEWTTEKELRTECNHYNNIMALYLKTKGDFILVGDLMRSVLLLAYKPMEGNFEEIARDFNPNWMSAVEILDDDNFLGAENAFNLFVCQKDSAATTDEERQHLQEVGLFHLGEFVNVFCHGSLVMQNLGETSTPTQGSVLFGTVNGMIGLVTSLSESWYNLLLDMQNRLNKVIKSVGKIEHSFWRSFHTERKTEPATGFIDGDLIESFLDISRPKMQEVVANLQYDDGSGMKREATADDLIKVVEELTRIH

As to `COC[C@H]1CN(C(=O)Nc2ccc3c(c2)CN(C2CCC(=O)NC2=O)C3=O)c2cccc(C(F)(F)F)c21` (stereo partly drawn) [Compound 329, (3R)—N-(2-(2,6-dioxopiperidin-3-yl)-1-oxoisoindolin-5-yl)-3-(methoxymethyl)-4-(trifluoromethyl)indoline-1-carboxamide], the concentration for 50% growth inhibition (GI50) with SKCO1 cell line (setting [1]) was less than 0.1 µM; with GP2D cell line (setting [2]), 0.1 to 1 µM; in the assay on CW2 cell line (setting [3]) it was 0.1 to 1 µM; in the assay with LS180 cell line (setting [4]) it was 0.1 to 1 µM; with LS174T cell line (setting [5]), 0.1 to 1 µM. For the same compound, on CRBN/DDB1, the IC50 was in the range of 100 to 1000 nM. The DC50 on CK1α was less than 0.1 µM.
In the case of `O=C1CCC(N2Cc3cc(NC(=O)N4CCc5cc(C(F)(F)F)ccc54)ccc3C2=O)C(=O)N1` (stereo not shown) [Compound 185, N-(2-(2,6-dioxopiperidin-3-yl)-1-oxoisoindolin-5-yl)-5-(trifluoromethyl)indoline-1-carboxamide], the GI50 lay within 0.1 to 1 µM in the assay on SKCO1 cell line (setting [6]); 0.1 to 1 µM in the assay with GP2D cell line (GP2d, read-out: GP2D GI50 (μM)); 0.1 to 1 µM with CW2 cell line (CW-2, read-out: CW2 GI50 (μM)); 0.1 to 1 µM in the assay with LS180 cell line (setting [7]); 0.1 to 1 µM in the assay with LS174T cell line (read-out: LS174T GI50 (μM)). Also, at CRBN/DDB1, the IC50 was 100 to 1000 nM. The same compound displayed a DC50 at CK1α of less than 0.1 µM.
For the compound `COC[C@@H]1Cc2ccccc2N1C(=O)Nc1ccc2c(c1)CN(C1CCC(=O)NC1=O)C2=O` (stereo in doubt) [Compound 334, (S)—N-(2-((R)-2,6-dioxopiperidin-3-yl)-1-oxoisoindolin-5-yl)-2-(methoxymethyl)indoline-1-carboxamide], the GI50 in the assay with SKCO1 cell line (setting [1]), with GP2D cell line (setting [2]), in the assay with CW2 cell line (setting [3]), in the assay with LS180 cell line (setting [4]) and in the assay on LS174T cell line (setting [5]) was 0.1 to 1 µM in each case. Further, on CRBN/DDB1, the IC50 was greater than 1000 nM. At CK1α, this compound registered a DC50 of less than 0.1 µM.
Consider `O=C1CCC(N2Cc3cc(NC(=O)N4CC5(CCOCC5)c5ccccc54)ccc3C2=O)C(=O)N1` (stereo not shown) [Compound 189], for which the GI50 in the assay with SKCO1 cell line (setting [1]), with GP2D cell line (setting [2]), in the assay with CW2 cell line (setting [3]), with LS180 cell line (setting [4]) and with LS174T cell line (setting [5]) was less than 0.1 µM each time. The IC50 at CRBN/DDB1 lay within 100 to 1000 nM. In addition, the DC50 on CK1α is less than 0.1 µM.
In the case of `Cc1ccc2c(c1)N(C(=O)Nc1ccc3c(c1)CN(C1CCC(=O)NC1=O)C3=O)CC2` (stereo not shown) [Compound 190, N-(2-(2,6-dioxopiperidin-3-yl)-1-oxoisoindolin-5-yl)-6-methylindoline-1-carboxamide], the 50% growth inhibitory concentration (GI50) lay in the range of 0.1 to 1 µM in the assay with SKCO1 cell line (setting [6]); 0.1 to 1 µM in the assay on GP2D cell line (GP2d, read-out: GP2D GI50 (μM)); 0.1 to 1 µM with CW2 cell line (CW-2, read-out: CW2 GI50 (μM)); 0.1 to 1 µM in the assay on LS180 cell line (setting [7]); 0.1 to 1 µM with LS174T cell line (read-out: LS174T GI50 (μM)). Moreover, the IC50 on CRBN/DDB1 is 100 to 1000 nM. The DC50 on CK1α is less than 0.1 µM.
As for `C[C@H]1Cc2ccccc2N1C(=O)Nc1ccc2c(c1)CN(C1CCC(=O)NC1=O)C2=O` (stereo partly drawn) [Compound 101, (2S)—N-(2-(2,6-dioxopiperidin-3-yl)-1-oxoisoindolin-5-yl)-2-methylindoline-1-carboxamide], the GI50 in the assay with SKCO1 cell line (setting [1]), with GP2D cell line (setting [2]), in the assay with CW2 cell line (setting [3]), in the assay with LS180 cell line (setting [4]) and in the assay with LS174T cell line (setting [5]) was less than 0.1 µM each time. For the same compound, the IC50 at CRBN/DDB1 was 100 to 1000 nM. In addition, the DC50 on CK1α is less than 0.1 µM.
In the case of `O=C1CCC(N2Cc3cc(NC(=O)N4CC5(CC5)c5ccccc54)ccc3C2=O)C(=O)N1` (stereo not shown) [Compound 210, N-(2-(2,6-dioxopiperidin-3-yl)-1-oxoisoindolin-5-yl)spiro[cyclopropane-1,3′-indoline]-1′-carboxamide], the GI50 was less than 0.1 µM in the assay on SKCO1 cell line (setting [6]); less than 0.1 µM in the assay on GP2D cell line (GP2d, read-out: GP2D GI50 (μM)); less than 0.1 µM with CW2 cell line (CW-2, read-out: CW2 GI50 (μM)); 0.1 to 1 µM with LS180 cell line (setting [7]); less than 0.1 µM with LS174T cell line (read-out: LS174T GI50 (μM)). In addition, at CRBN/DDB1, the IC50 lay in the range of 100 to 1000 nM. The compound also registered a DC50 at CK1α of less than 0.1 µM.
